Experimental data reported in paper PMC11680790, “Structural and functional determination of peptide versus small molecule ligand binding at the apelin receptor” (Nature Communications, 2024).
Substitutions are numbered along the chain they refer to. One block for each molecule: values may come before it. Where no end group is shown, it is not given here. 647 dye = not defined here

Key:
[1] = test system: G/X45^1.49 variant apelin receptor; test: High content screening, fluorescent ligand binding in transfected CHO-K1 cells, G/X45^1.49; design: species or system human; conditions: 1 µM, 90 min, mean ± SD, n = 4 in triplicate
Method: (§1) Cells were maintained at 37 °C, in humidified air containing 5% CO2.
(§2) High content screening was used to characterise apelin receptor variant expression, membrane localisation, and fluorescent ligand binding. CHO-K1 cells transiently transfected with wild-type or variant apelin receptor construct tagged C-terminally with eGFP were plated at ~10,000/well in CellCarrier-96 Ultra Plates (PerkinElmer). […] Fluorescent ligand was washed out with HBSS, and cells were fixed with 4% formaldehyde for ~3 min. […] After a final wash, cells were maintained in 100 µL HBSS.
(§3) Cells maintained in the 96-well plates were imaged on an Opera Phenix High Content Screening System (PerkinElmer), a highly sensitive, dual-camera spinning disk confocal fluorescent imaging platform, using a 40x/NA1.1 water immersion objective. […] Three fluorescent channels were used. […] For all channels, excitation laser intensity was set at 50% power, with a 50 ms exposure time. Additionally, each imaging field was imaged using bright-field and digital phase contrast (DPC). […]
(§4) Mean membrane fluorescence was then quantified for the green channel as an indication of membrane protein expression, and for the red channel as an indication of fluorescent ligand binding.

[2] = test system: T/X227^5.64 variant apelin receptor; test: High content screening, fluorescent ligand binding in transfected CHO-K1 cells, T/X227^5.64; design: species or system human; conditions: 1 µM, 90 min, mean ± SD, n = 4 in triplicate
Method: as §1, §2, §3, §4

[3] = target: T1, wild-type apelin receptor (Homo sapiens, UniProt P35414); test: Saturation radioligand binding, CHO-K1 membranes, wild-type; conditions: WT; mean ± SD, n = 3
T1 construct: expressed in transfected cells; host or cells: CHO-K1 (ECACC 85051005), transient, pcDNA3.1
T1 sequence (P35414 1-380): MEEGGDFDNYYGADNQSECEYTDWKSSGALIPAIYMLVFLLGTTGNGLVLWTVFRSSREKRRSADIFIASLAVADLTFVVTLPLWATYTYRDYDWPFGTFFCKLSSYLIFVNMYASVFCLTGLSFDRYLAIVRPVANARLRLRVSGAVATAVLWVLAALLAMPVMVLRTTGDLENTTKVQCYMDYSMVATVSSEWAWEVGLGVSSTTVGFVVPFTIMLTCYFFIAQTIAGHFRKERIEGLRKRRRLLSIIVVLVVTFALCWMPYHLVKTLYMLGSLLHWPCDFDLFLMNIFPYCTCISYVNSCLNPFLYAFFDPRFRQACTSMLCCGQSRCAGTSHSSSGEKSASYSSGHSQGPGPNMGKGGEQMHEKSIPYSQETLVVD
Method: (§5) The radiolabel has a specific activity of 2200 Ci/mmol. Plastic-ware used in radioligand binding experiments was coated with Sigmacote, a siliconising reagent that forms a covalent film to reduce sticking of the radiolabel.
(§6) Membrane protein preparations were made by harvesting CHO-K1 cells transiently transfected with wild-type or variant apelin receptor construct into tubes. Tubes were spun at 1000 xg for 10 min at 4 °C to pellet cells, before resuspending and triturating in ice-cold TRIS wash buffer (50 mM TRIS-HCl in deionised water, pH balanced to 7.4 at room temperature) to induce complete hypotonic lysis of cells. Cells were spun a second time at 21,000 × g for 20 min at 4 °C, to obtain a crude membrane fraction. Supernatant was discarded and membrane preparations resuspended in TRIS wash buffer. Cell membrane preparations were stored at –70 °C until use in experiments. Protein concentration of cell membrane preparations was determined using a DC Protein Assay (Bio-Rad), as per the manufacturer’s instructions.
(§7) For binding experiments, membrane preparations were diluted in binding buffer (50 mM TRIS-HCl and 5 mM MgCl2, balanced to pH 7.4 at room temperature) to give a final protein concentration of 1 mg/mL. […] At the end-point, samples were spun in a centrifuge at 20,000 × g for 10 min at 4 °C to terminate equilibrium. […]

[4] = test system: T/X227^5.64 variant apelin receptor; test: Saturation radioligand binding, CHO-K1 membranes, T/X227^5.64; design: species or system human
Method: as §5, §6
(§8) For binding experiments, membrane preparations were diluted in binding buffer (50 mM TRIS-HCl and 5 mM MgCl2, balanced to pH 7.4 at room temperature) to give a final protein concentration of 1 mg/mL. […] At the end-point, samples were spun in a centrifuge at 20,000 × g for 10 min at 4 °C to terminate equilibrium. Supernatant was aspirated, and pellets were resuspended and triturated in 500 μL ice-cold wash buffer, over ice. Samples were spun a second time at 20,000 × g for 10 min at 4 °C, before aspiration of the supernatant. Radioactivity in pellets was counted using a Cobra II model 5003 gamma counter (Packard).
(§9) Saturation binding data were analysed using the EBDA and LIGAND components of the KELL (Kinetic, EBDA, Ligand, Lowry) software package (Biosoft)[58] to generate receptor affinity (KD) and receptor density (Bmax) values. […] Saturation data were presented using the nonlinear one site-specific binding with Hill slope model fitted by GraphPad Prism version 6.07 for Windows (GraphPad Software).

[5] = target: apelin receptor, homogenised human left ventricle; conditions: previously determined by saturation analysis in homogenised human left ventricle; cited from earlier work
Method: Heart Homogenate. Ethically approved (Research Ethics Committee 05/Q104/142) surgical samples of human left ventricle tissue were obtained with informed consent at the time of operation from Royal Papworth Hospital Tissue Bank and stored at -80°C. Tissues were homogenised using a Polytron Homogenizer (Thomas Scientific), in buff ...

[6] = target: T2, R/H168^4.64 variant apelin receptor (Homo sapiens, UniProt P35414, R168H); test: Saturation radioligand binding, CHO-K1 membranes, R/H168^4.64
T2 construct: expressed in transfected cells; host or cells: CHO-K1, transient, pcDNA3.1
T2 sequence (P35414 1-380 R168H): T1 sequence (P35414 1-380) with R168H
Method: as §5, §6, §7

[7] = test system: untransfected CHO-K1 cells; test: Saturation radioligand binding, untransfected CHO-K1 membranes
[8] = test system: R/H168^4.64 apelin receptor, hESC-CM; test: Saturation radioligand binding, R/H168^4.64 hESC-CM membranes; design: species or system human
Method: as §5, §6, §7

[9] = test system: G/X45^1.49 variant apelin receptor; test: Saturation radioligand binding, CHO-K1 membranes, G/X45^1.49; design: species or system human
Method: as §5, §6, §8, §9

[10] = test system: R/H168^4.64 apelin receptor, hESC; test: Saturation radioligand binding, R/H168^4.64 hESC membranes; design: species or system human
Method: as §5, §6, §7

[11] = target: T3, T/M89^2.64 variant apelin receptor (Homo sapiens, UniProt P35414, T89M); test: Saturation radioligand binding, CHO-K1 membranes, T/M89^2.64; conditions: mean ± SD, n = 3
T3 construct: expressed in transfected cells; host or cells: CHO-K1, transient, pcDNA3.1
T3 sequence (P35414 1-380 T89M): T1 sequence (P35414 1-380) with T89M
Method: as §5, §6, §7

[12] = target: T4, V/L38^1.42 variant apelin receptor (Homo sapiens, UniProt P35414, V38L); test: Saturation radioligand binding, CHO-K1 membranes, V/L38^1.42
T4 construct: expressed in transfected cells; host or cells: CHO-K1, transient, pcDNA3.1
T4 sequence (P35414 1-380 V38L): T1 sequence (P35414 1-380) with V38L
Method: as §5, §6, §7

[13] = 90 min, room temperature, pH 7.4

Molecule: ELA647: fluorescently labelled ELA peptide ({647 dye}-QRPVNLTMRRKLRKHNCLQRRCMPLHSRVPFP; ends and bridges not checked; UniProt P0DMC3 23-54, looked up)
Mem. ELA647 [1]: 20.73 ± 12.55 % WT
Mem. ELA647 [2]: 14.83 ± 7.02 % WT

Bmax [3]: 236.80 ± 27.07 fmol/mg
Hill slope (nH) [3]: 1.26 ± 0.22
Bmax [4]: NBD
Hill slope (nH) [4]: NBD
KD [4, 13]: NBD
Bmax [6]: NBD
Hill slope (nH) [6]: NBD
[125I]-apelin-13 binding versus wild-type [8]: significantly reduced
Bmax [9]: NBD
Hill slope (nH) [9]: NBD
KD [9, 13]: NBD
[125I]-apelin-13 binding versus wild-type [10]: significantly reduced
Bmax [11]: 440.47 ± 38.36 fmol/mg
Hill slope (nH) [11]: 1.55 ± 0.22
Bmax [12]: NBD
Hill slope (nH) [12]: NBD
Molecule: CCCC[C@H](NC(=O)[C@@H]1CCCN1C(=O)CNC(=O)[C@H](CCCCN)NC(=O)[C@H](Cc1c[nH]cn1)NC(=O)[C@H](CO)NC(=O)[C@H](CC(C)C)NC(=O)[C@H](CCCNC(=N)N)NC(=O)[C@@H]1CCCN1C(=O)[C@H](CCCNC(=N)N)NC(=O)[C@@H]1CCC(=O)N1)C(=O)N1CCC[C@H]1C(=O)N[C@@H](Cc1ccc(O)c(I)c1)C(=O)O [[^125I]-apelin-13]
Kd [5]: 0.076 nM
Bmax [7]: NBD
Hill slope (nH) [7]: NBD
KD [7, 13]: NBD
